Consider twelve molecules from patent US11242345B2, “Sulfonimidoylpurinone compounds and methods of treatment using the same” (Hoffmann-La Roche Inc., priority 2015, dated 2022).

The structures appear in SMILES notation. pEC50, pIC50: −log10 of the molar value. Where two headings read alike, the source gives them in different places. Bounds are passed on as bounds.

The target of one data set is human TLR7 (Homo sapiens (Human), UniProt Q9NYK1). Kind of data set: HEK-Blue-hTLR7 cells assay (SEAP reporter). The note with it: 20 hrs. Format: cell-based. As to the method: A stable HEK-Blue-hTLR7 cell line was purchased from InvivoGen (Cat. #: hkb-htlr7, San Diego, Calif., USA). These cells were designed for studying the stimulation of human TLR7 by monitoring the activation of NF-κB. […] Therefore the reporter expression was regulated by the NF-κB promoter upon stimulation of human TLR7 for 20 hrs. The cell culture supernatant SEAP reporter activity was determined using QUANTI-Blue™ kit (Cat. #: rep-qbl, Invivogen, San Diego, Ca, USA) at a wavelength of 640 nm, a detection medium that turns purple or blue in the presence of alkaline phosphatase.
HEK-Blue-hTLR7 cells were incubated at a density of 250,000-450,000 cells/mL in a volume of 180 μL in a 96-well plate in Dulbecco's Modified Eagle's medium (DMEM) containing 4.5 g/L glucose, 50 U/mL penicillin, […], […], 2 mM L-glutamine, 10% (V/V) heat-inactivated fetal bovine serum for 24 hrs. Then the HEK-Blue-hTLR-7 cells were incubated with addition of 20 μL test compound in a serial dilution in the presence of final DMSO at 1% and perform incubation under 37° C. in a CO2 incubator for 20 hrs. Then 20 μL of the supernatant from each well was incubated with […] Quanti-blue substrate solution at 37° C. for 2 hrs and the absorbance was read at 620-655 nm using a spectrophotometer. The signalling pathway that TLR7 activation leads to downstream NF-κB activation has been widely accepted, and therefore similar reporter assay was also widely used for evaluating TLR7 agonist (Tsuneyasu Kaisho and Takashi Tanaka, Trends in Immunology, Volume 29, Issue 7, July 2008, […]; Hiroaki Hemmi et al, Nature Immunology 3, 196-200 (2002)).

The next data set deals with hERG channel (Homo sapiens (Human), UniProt Q12809). Kind of data set: hERG channel inhibition assay (patch-clamp, CHOhERG cells). It is filed as cell-based. The note with it: for IC20: human, CHO cells stably expressing hERG. The method, then: The hERG K^+ channels were cloned in humans and stably expressed in a CHO (Chinese hamster ovary) cell line. CHOhERG cells were used for patch-clamp (voltage-clamp, whole-cell) experiments. Cells were stimulated by a voltage pattern to activate hERG channels and conduct IKhERG currents (rapid delayed outward rectifier potassium current of the hERG channel). […] Thereafter, the test compound was added to the preparation at increasing concentrations. For each concentration, an attempt was made to reach a steady-state effect, usually, this was achieved within 3-10 min at which time the next highest concentration was applied. The amplitude and kinetics of IKhERG are recorded in each concentration of the drug which were compared to the control values (taken as 100%). (references: Redfern W S, Carlsson L, Davis A S, Lynch W G, MacKenzie I, Palethorpe S, Siegl P K, Strang I, Sullivan A T, Wallis R, Camm A J, Hammond T G. 2003; Relationships between preclinical cardiac electrophysiology, clinical QT interval prolongation and torsade de pointes for a broad range of drugs: evidence for a provisional safety margin in drug development. Cardiovasc. Res. 58:32-45, Sanguinetti M C, Tristani-Firouzi M. 2006; hERG potassium channels and cardiac arrhythmia. Nature 440:463-469, Webster R, Leishman D, Walker D. 2002; Towards a drug concentration effect relationship for QT prolongation and torsades de pointes. Curr. Opin. Drug Discov. Devel. 5:116-26).
In general terms: The hERG channel carries a current that helps repolarise heart muscle cells.

The next data set has as its system CYP3A4. Kind of data set: Cytochrome P450 induction screening assay, mRNA induction in human cryopreserved hepatocytes. It is filed as in vitro ADME. The note with it: 24 hours. The source says: Induction of cytochrome P450 enzymes is associated with an increased prevalence of clinical drug-drug interactions. The clinical consequences of induction may be therapeutic failure caused by a decreased systemic exposure of the drug itself or a co-administered therapy, or toxicity as a result of increased bioactivation. Cytochrome P450 (CYP450) induction assay has been used to understand the potential drug-drug interaction liabilities in drug discovery stage. Human cryopreserved hepatocytes (Life Technologies, Carlsbad, USA) were thawed and cultured in collagen I coated 96-well plates with a density of 52,000 cells/well. After attachment, hepatocyte maintenance medium (HMM; Lonza, Switzerland) was changed after cells were pre-cultured overnight. […] Medium change was then performed and cells were exposed for 24 hours to test compounds, positive inducer compounds, or vehicle (0.1% DMSO), respectively. At the end of the compound exposure period, medium was removed and cells lysed using 100 μL/well MagNA Pure LC RNA isolation tissue lysis buffer (Roche Diagnostics AG, Rotkreuz, Switzerland). […] mRNA isolation was performed using the MagNA Pure 96 system (Roche Diagnostics AG, Rotkreuz, Switzerland) and the respective cellular RNA large volume kit (Roche Diagnostics AG, Rotkreuz, Switzerland) from thawed samples diluted 1:1 with PBS. […] The resulting cDNA was diluted with 40 μL of H2O before using for qRT-PCR. qRT-PCR was performed by using the forward and the reverse primer, the corresponding Universal Probe Library (all from Microsynth, Balgach, Switzerland) and the Taqman Fast advanced master mix (Applied Biosystems), on an ABI 7900 machine (Applied Biosystems). qRT-PCR Ct-values for the respective P450s were put into relation to the Ct-value of RN18S1 (microsynth, Balgach, Switzerland) of the same sample. Doing so, a respective Δct-value was calculated. Using the average of all Δct-values for the vehicle control samples, a ΔΔct-value was calculated for each sample (ΔΔct-value(sample)=Δct-value(sample)−average of Δct-value of all vehicle controls). […] The individual fold induction values were then averaged per treatment condition (usually n=3 biological replicates). […] Relative induction (%)=100×(T−V)/(P−V) • T: fold induction of test compound condition • P: fold induction of positive inducer compound • V: fold induction of vehicle controls Results of CYP3A4 induction are given in Table 5.

The target of a further data set is human TLR8 (Homo sapiens (Human), UniProt Q9NR97). Kind of data set: HEK-Blue-hTLR8 cells assay (SEAP reporter) and selectivity index. It is filed as cell-based. The note with it: 20 hrs, read-out: HEK Blue hTLR-8 EC50. As to the method: These cells were designed for studying the stimulation of human TLR8 by monitoring the activation of NF-κB. […] Therefore the reporter expression was regulated by the NF-κB promoter upon stimulation of human TLR8 for 20 hrs.
Then the HEK-Blue-hTLR8 cells were incubated with addition of 20 μL test compound in a serial dilution in the presence of final DMSO at 1% and perform incubation under 37° C. in a CO2 incubator for 20 hrs. […] The signalling pathway that TLR8 activation leads to downstream NF-κB activation has been widely accepted, and therefore similar reporter assay was also widely used for evaluating TLR8 agonist (Tsuneyasu Kaisho and Takashi Tanaka, Trends in Immunology, Volume 29, Issue 7, July 2008, […]; Hiroaki Hemmi et al, Nature Immunology 3, 196-200 (2002)).

Data set [1] can be described thus: Single dose PK after 1 mg/kg intravenous dosing to rat. It is filed as in vivo, Male Wister-Han Rats. The following applies: IV 1 mpk. As to the method:
The single dose PK in Male Wister-Han Rats was performed to assess pharmacokinetic properties of tested compounds. Two groups of animals were dosed via bolus intravenous (IV) of the respective compound. Blood samples (approximately 20 μL) were collected via Jugular vein or an alternate site at 5 min, 15 min, 30 min, 1 hr, 2 hr, 4 hr, 7 hr and 24 hr post-dose for IV group. Blood samples were placed into tubes containing EDTA-K2 anticoagulant and centrifuged at 5000 rpm for 6 min at 4° C. to separate plasma from the samples. Following centrifugation, the resulting plasma was transferred to clean tubes for bioanalysis on LC/MS/MS. The pharmacokinetic parameters were calculated using non-compartmental module of WinNonlin® Professional 6.2. […] Therefore, compounds of present invention potentially could lead to less dose frequency and lower dose in clinical application.

For data set [2] the following is noted: rat, IV 1 mpk; data from WO2016023511; cited from earlier work.
For data set [3], the system named is patients with chronic hepatitis B. The note with it: phase Ib; cited from earlier work.
Setting [4] is: read-out: HEK-Blue-hTLR7 (EC50 (μM)).
Where [5] appears, read: male, Wister-Han, plasma, iv, 1 mg/kg.

Broadly, the EC50 is the concentration needed to bring the measured effect to its halfway point. The term pIC50 denotes −log10 of the IC50, conventionally taken in molar units. High values mean a low IC50, low ones a high IC50. By IC20 is commonly meant the concentration needed for an effect of 20%. A lower IC20 goes with greater potency. What is called pEC50 is the EC50 on a negative log10 scale, so that one unit is a factor of ten. The AUC(0-inf) is total exposure, with the tail of the curve extrapolated. Read a low AUC(0-inf) as less exposure. A word on the clearance: it is the volume of plasma or blood freed of the substance per unit of time.

Chain of human TLR7 (Q9NYK1 27-1049): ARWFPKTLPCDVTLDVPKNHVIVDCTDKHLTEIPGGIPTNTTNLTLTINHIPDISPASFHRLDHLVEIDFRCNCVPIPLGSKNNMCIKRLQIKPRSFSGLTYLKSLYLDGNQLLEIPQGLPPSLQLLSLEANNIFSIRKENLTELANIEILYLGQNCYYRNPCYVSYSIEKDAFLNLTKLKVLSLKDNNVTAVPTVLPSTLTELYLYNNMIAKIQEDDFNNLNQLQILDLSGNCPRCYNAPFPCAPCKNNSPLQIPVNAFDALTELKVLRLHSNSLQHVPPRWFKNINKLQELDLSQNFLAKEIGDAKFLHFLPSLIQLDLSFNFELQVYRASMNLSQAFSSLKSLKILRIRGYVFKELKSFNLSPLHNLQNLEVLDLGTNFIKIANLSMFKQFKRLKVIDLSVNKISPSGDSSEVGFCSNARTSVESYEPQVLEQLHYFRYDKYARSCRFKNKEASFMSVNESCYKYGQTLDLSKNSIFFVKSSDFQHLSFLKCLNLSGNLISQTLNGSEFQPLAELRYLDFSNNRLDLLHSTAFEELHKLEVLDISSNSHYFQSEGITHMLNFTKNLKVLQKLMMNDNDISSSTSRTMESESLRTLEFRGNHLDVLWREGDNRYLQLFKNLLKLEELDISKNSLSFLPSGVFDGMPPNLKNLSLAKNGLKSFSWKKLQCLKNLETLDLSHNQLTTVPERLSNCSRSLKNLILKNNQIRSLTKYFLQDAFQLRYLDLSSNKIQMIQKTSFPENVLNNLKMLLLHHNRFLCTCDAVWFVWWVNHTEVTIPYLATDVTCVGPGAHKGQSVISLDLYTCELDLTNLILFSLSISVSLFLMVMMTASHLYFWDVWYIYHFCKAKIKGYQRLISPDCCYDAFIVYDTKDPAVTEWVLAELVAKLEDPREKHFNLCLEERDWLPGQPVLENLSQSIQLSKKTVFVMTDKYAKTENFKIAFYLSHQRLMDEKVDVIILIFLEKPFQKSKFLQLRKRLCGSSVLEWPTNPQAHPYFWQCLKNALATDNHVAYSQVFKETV
Chain of hERG channel (Q12809 whole entry): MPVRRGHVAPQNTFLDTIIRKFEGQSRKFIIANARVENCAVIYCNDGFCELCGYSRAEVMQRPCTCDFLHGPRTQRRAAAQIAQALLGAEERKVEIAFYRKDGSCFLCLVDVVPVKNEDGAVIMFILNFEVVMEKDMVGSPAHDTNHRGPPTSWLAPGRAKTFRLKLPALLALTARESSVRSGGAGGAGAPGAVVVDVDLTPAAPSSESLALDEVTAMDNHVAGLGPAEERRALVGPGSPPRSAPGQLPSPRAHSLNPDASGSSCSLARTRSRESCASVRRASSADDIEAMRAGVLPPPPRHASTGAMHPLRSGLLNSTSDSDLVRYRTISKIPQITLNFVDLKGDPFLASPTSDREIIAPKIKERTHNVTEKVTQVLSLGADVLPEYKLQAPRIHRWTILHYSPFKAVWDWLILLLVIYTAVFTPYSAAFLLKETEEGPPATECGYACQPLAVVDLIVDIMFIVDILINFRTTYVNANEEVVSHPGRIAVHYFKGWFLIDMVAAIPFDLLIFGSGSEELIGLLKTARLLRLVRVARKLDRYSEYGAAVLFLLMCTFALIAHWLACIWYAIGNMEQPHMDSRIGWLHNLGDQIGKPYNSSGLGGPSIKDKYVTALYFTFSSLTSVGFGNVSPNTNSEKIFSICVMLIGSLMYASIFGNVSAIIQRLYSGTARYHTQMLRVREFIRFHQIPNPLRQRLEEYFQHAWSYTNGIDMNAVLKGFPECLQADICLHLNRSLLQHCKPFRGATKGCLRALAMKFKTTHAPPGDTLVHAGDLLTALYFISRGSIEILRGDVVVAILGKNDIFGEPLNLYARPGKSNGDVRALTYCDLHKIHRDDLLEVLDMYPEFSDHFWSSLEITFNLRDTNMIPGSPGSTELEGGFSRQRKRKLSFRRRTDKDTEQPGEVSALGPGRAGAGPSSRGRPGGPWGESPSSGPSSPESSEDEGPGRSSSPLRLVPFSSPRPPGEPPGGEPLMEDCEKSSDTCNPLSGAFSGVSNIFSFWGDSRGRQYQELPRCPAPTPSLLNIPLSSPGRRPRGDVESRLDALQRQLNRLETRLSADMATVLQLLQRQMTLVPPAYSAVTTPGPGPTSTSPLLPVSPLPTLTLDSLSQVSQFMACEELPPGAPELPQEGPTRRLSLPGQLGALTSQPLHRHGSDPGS
Chain of human TLR8 (Q9NR97 27-1041): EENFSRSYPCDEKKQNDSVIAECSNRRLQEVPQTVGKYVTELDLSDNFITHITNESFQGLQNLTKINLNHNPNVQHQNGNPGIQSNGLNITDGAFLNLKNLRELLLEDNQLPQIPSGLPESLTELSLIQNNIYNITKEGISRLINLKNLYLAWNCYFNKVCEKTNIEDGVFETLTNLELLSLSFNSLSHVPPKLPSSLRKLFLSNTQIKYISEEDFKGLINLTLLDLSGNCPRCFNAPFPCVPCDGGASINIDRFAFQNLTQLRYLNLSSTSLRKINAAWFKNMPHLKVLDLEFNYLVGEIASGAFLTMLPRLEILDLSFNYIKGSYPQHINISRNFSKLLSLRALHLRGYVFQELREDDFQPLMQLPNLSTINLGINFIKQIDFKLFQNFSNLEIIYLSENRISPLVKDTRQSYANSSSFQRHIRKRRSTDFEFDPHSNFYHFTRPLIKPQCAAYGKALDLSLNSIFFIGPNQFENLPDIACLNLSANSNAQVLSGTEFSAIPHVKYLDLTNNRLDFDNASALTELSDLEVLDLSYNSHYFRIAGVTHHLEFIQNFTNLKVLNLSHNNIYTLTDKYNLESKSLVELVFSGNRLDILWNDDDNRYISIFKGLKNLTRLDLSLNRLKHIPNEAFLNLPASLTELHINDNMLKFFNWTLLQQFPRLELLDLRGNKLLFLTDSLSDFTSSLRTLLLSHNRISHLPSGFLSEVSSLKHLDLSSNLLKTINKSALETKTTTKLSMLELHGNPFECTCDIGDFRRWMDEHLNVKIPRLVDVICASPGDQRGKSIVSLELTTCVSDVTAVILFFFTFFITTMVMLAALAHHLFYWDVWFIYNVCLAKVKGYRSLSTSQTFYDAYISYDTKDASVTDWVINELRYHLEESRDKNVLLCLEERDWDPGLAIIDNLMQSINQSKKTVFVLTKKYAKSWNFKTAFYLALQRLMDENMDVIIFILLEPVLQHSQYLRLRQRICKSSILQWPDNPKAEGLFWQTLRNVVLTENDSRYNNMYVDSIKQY

With `CS(=N)(=O)c1nc(N)c2[nH]c(=O)n(Cc3ccccc3)c2n1` (single isomer, unassigned) [Example 1-B, 6-Amino-9-benzyl-2-(methylsulfonimidoyl)-7H-purin-8-one], the EC50 at human TLR7 (setting [4]) is 0.18 µM. At hERG channel, this molecule had a pIC50 of less than 4.70 and an IC20 greater than 10 µM.

On to `CCCS(=N)(=O)c1nc(N)c2[nH]c(=O)n(Cc3ccccc3)c2n1` (single isomer, unassigned) [Example 4-A, 6-Amino-9-benzyl-2-(propylsulfonimidoyl)-7H-purin-8-one], for which the “Relative induction of Positive control (10 μM Rifampicin) (%)” value (from here on “Relative induction … (%)”) in the data set on CYP3A4 is listed as −0.63%.

Consider `CCCS(=N)(=O)c1nc(N)c2[nH]c(=O)n(Cc3ccccc3)c2n1` (single isomer, unassigned) [Example 4-B, 6-Amino-9-benzyl-2-(propylsulfonimidoyl)-7H-purin-8-one], for which the EC50 at human TLR7 (HEK-Blue-hTLR7 (EC50 (μM))) was 0.086 µM. The “Relative induction … (%)” value with CYP3A4 is −0.90%.

The molecule `CCCS(=N)(=O)c1nc(N)c2[nH]c(=O)n(Cc3ccc(C)cc3)c2n1` (single isomer, unassigned) [Example 29-A, 6-Amino-2-(propylsulfonimidoyl)-9-(p-tolylmethyl)-7H-purin-8-one] registered an EC50 at human TLR7 (HEK-Blue-hTLR7 (EC50 (μM))) of 0.019 µM. At hERG channel, the pIC50 was less than 4.70 and the IC20 was greater than 10 µM.

For `CCCS(=N)(=O)c1nc(N)c2[nH]c(=O)n(Cc3ccc(C)cc3)c2n1` (single isomer, unassigned) [Example 29-B, 6-Amino-2-(propylsulfonimidoyl)-9-(p-tolylmethyl)-7H-purin-8-one], the EC50 on human TLR7 (HEK-Blue-hTLR7 (EC50 (μM))) worked out at 0.022 µM. Moreover, the negative logarithm of the IC50 (pIC50) on hERG channel was less than 4.70.

As for `CCS(=N)(=O)c1nc(N)c2[nH]c(=O)n(Cc3ccc(Cl)cc3)c2n1` (single isomer, unassigned) [Example 70-A, 6-Amino-9-[(4-chlorophenyl)methyl]-2-(ethylsulfonimidoyl)-7H-purin-8-one], the EC50 at human TLR7 (setting [4]) is 0.054 µM. The pEC50 on human TLR8 was less than 3.00. For the same molecule, the “Relative induction … (%)” value with CYP3A4 came to 0.42%. Moreover, in data set [1] (setting [5]), the AUC(0-inf) worked out at 1.63 µM·h, the C0 came to 3050 nM and the clearance came to 56 mL/min/kg.

On to `CCS(=N)(=O)c1nc(N)c2[nH]c(=O)n(Cc3ccc(Cl)cc3)c2n1` (single isomer, unassigned) [Example 70-B, 6-Amino-9-[(4-chlorophenyl)methyl]-2-(ethylsulfonimidoyl)-7H-purin-8-one], for which the EC50 on human TLR7 (setting [4]) amounted to 0.077 µM. Further, the “Relative induction … (%)” value in the data set with CYP3A4 is listed as −0.42%. This molecule registered a C0 in data set [1] of 2780 nM.

Consider `CCS(=N)(=O)c1nc(N)c2[nH]c(=O)n(Cc3ccc(C)cc3)c2n1` (single isomer, unassigned) [Example 71-A, 6-Amino-2-(ethylsulfonimidoyl)-9-(p-tolylmethyl)-7H-purin-8-one], for which the EC50 on human TLR7 (setting [4]) turned out to be 0.134 µM. For the same molecule, the “Relative induction … (%)” value with CYP3A4 is −0.10%. At hERG channel, this molecule had a pIC50 of less than 4.70 and an IC20 greater than 10 µM. Further, in data set [1] (setting [5]), the AUC(0-inf) stood at 1.18 µM·h, the C0 was 1850 nM and the clearance worked out at 84.6 mL/min/kg.

Take `CCS(=N)(=O)c1nc(N)c2[nH]c(=O)n(Cc3ccc(C)cc3)c2n1` (single isomer, unassigned) [Example 71-B, 6-Amino-2-(ethylsulfonimidoyl)-9-(p-tolylmethyl)-7H-purin-8-one]: on human TLR7 (setting [4]), the EC50 turned out to be 0.087 µM.

With `CCCS(=N)(=O)c1nc(N)c2[nH]c(=O)n(Cc3ccc(F)cc3)c2n1` (stereo not drawn) [Example 24, 6-Amino-9-[(4-fluorophenyl)methyl]-2-(propylsulfonimidoyl)-7H-purin-8-one], the “Relative induction … (%)” value in the data set on CYP3A4 is listed as −0.72%.

On to `CS(=O)(=O)c1nc(N)c2[nH]c(=O)n(Cc3ccccc3)c2n1` [Example S-1, reference compound], for which the C0 in data set [1] came out at 534 nM.

`CCCCOc1nc(N)c2c(n1)N(Cc1cccc(CN3CCCC3)c1)CC(=O)N2` [GS-9620]: the C0 in data set [2] was 220 nM. In data set [3], the “ISG15 mRNA induction” value is “dose-dependent ISG15 mRNA induction”; the Safety and tolerability entry is on record as “safe, well tolerated”.
